Data from patent US20230365571A1, “COMPOUNDS AND COMPOSITIONS AS Sppl2a INHIBITORS” (Novartis AG, priority 2020, published 2023).

Key:
Assay type in all cases: cell-based
human SPPL2a [1] = biological target: T1, human SPPL2a (Homo sapiens, UniProt Q8TCT8); experiment: Sppl2a TL (translocation) imaging assay in U-2 OS cells; parameters: expressed in transfected cells; conditions: U-2 OS cells expressing human SPPL2a and EGFP-TNFα(aa1-76) NTF substrate; 24 h
T1 sequence (Q8TCT8 26-520): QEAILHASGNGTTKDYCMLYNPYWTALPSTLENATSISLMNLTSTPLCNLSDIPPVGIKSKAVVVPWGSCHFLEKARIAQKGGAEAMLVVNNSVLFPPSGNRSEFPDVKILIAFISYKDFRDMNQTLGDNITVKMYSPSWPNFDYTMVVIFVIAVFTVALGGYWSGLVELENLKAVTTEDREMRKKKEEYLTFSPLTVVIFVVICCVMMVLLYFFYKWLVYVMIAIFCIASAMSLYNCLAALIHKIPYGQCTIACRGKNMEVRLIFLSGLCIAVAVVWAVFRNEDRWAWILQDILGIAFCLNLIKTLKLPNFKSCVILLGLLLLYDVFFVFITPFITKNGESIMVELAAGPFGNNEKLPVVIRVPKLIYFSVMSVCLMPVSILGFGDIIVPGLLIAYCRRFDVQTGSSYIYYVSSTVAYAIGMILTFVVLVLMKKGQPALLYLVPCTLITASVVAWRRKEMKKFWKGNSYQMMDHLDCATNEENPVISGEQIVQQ
Method in brief: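 U-2 OS cells stably expressing human SPPL2a plus doxycycline-induced EGFP-TNFα(aa1-76) NTF, treated 24 h at 37 °C with inhibitor (100 μM–1 nM, 11 points, 0.9% DMSO, 5 μg/mL doxycycline). Imaging of nuclear-minus-cytoplasmic EGFP intensity; % inhibition versus 0.5 μM LY-411,575 and DMSO, IC50 by nonlinear regression; CC50 from cell count.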

Sppl2a CD74 = biological target: T2, Sppl2a CD74 (Mus musculus, UniProt Q9JJF9); experiment: CD74/p8 mouse whole blood assay, flow cytometry format; conditions: Balb/c mouse whole blood, 5 h, CD74 signal on gated live B cells
T2 construct: Mouse whole blood Balb/c mice (sodium citrate) was ordered by Bioreclamation LLC; tissue Bioreclamation LLC
T2 sequence (Q9JJF9 26-523): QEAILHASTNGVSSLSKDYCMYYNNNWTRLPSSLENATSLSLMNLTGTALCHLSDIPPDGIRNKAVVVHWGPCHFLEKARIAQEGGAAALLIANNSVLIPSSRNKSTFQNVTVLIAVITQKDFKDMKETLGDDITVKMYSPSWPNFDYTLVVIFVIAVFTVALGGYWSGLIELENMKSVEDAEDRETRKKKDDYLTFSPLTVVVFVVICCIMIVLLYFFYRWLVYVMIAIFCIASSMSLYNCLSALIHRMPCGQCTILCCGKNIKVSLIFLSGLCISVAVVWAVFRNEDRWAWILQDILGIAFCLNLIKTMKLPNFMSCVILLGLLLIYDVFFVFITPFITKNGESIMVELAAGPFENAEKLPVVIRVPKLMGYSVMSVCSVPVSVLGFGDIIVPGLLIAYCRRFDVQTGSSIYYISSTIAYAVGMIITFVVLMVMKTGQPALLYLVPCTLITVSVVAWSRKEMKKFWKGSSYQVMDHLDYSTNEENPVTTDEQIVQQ
Method in brief: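 Balb/c mouse whole blood (citrate) incubated 5 h at 37 °C with compounds, 11-point dilution from 30 μM top. After RBC lysis, live B220+ B cells stained intracellularly for CD74 (FITC) and analysed by flow cytometry. IC50 fitted from CD74 median fluorescence intensity.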

human SPPL2a [2] = biological target: T1, human SPPL2a; experiment: Sppl2a RGA (reporter gene assay) in HEK293 cells; parameters: expressed in transfected cells; host or cells: HEK293 (transient); conditions: NT-TNF-VP16-Gal4 substrate, Gal4-luciferase reporter, 24 h
Method in brief: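 HEK293 cells transiently co-transfected with human SPPL2a, NT-TNF-VP16-Gal4 substrate and Gal4-luciferase reporter, compound added within 5 h. After 24 h at 37 °C, luciferase luminescence measured; IC50 from concentration versus normalized luminescence.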

Row | Structure (SMILES) | IC50 (human SPPL2a [1]) | IC50 (Sppl2a CD74) | IC50 (human SPPL2a [2])
1 | CCn1nc(-c2ccco2)cc1NC(=O)C[C@@H](C)C(=O)N[C@@H]1C(=O)N2CCCN2Cc2ccccc21 [Example 85, (R)-N^4-(1-Ethyl-3-(furan-2-yl)-1H-pyrazol-5-yl)-2-methyl-N^1-((S)-11-oxo-2,3,10,11-tetrahydro-1H,5H-benzo[d]pyrazolo [1,2-a][1,2]diazepin-10-yl)succinamide] | 10 nM | 203 nM | 22 nM
2 | C[C@H](CC(=O)Nc1cc(NC(=O)C(C)(C)C)nn1C)C(=O)N[C@@H]1C(=O)N2CCCN2Cc2ccccc21 [Example 89, (R)-2-Methyl-N^4-(1-methyl-3-pivalamido-1H-pyrazol-5-yl)-N^1-((S)-11-oxo-2,3,10,11-tetrahydro-1H,5H-benzo[d]pyrazolo [1,2-a][1,2]diazepin-10-yl)succinamide] | 11 nM | 649 nM | 60 nM
3 | Cc1cc(-c2cc(NC(=O)C[C@@H](C)C(=O)N[C@@H]3C(=O)N4CCCN4Cc4ccccc43)n(C)n2)on1 [Example 90, (R)-2-Methyl-N^4. (1-methyl-3-(3-methylisoxazol-5-yl)-1H-pyrazol-5-yl)-N^1-((S)-11-oxo-2,3,10,11-tetrahydro-1H,5H-benzo[d]pyrazolo [1,2-a][1,2]diazepin-10-yl)succinamide] | 11 nM | 635 nM | 11 nM
4 | CC(C)NC(=O)c1ncc(NC(=O)C[C@@H](C)C(=O)N[C@@H]2C(=O)N3CCCN3Cc3ccccc32)s1 [Example 91, (R)-N^4-(2-(Isopropylcarba-moyl)thiazol-5-yl)-2-methyl-N^1-((S)-11-oxo-2,3,10,11-tetrahydro-1H,5H-benzo[d]pyrazolo [1,2-a][1,2]diazepin-10-yl)succinamide] | 11 nM | 500 nM | 24 nM
5 | CC(C)C(=O)Nc1cc(NC(=O)C[C@H](C(=O)N[C@@H]2C(=O)N3CC4(CC4)CN3C(=O)c3ccccc32)C2CC2)n(C)n1 [Example 93, (S)-2-Cyclopropyl-N^1-((S)-5,11-dioxo-10,11-dihydro-1H,3H,5H-spiro[benzo[d]pyrazolo[1,2-a][1,2]diazepine-2,1′-cyclopropan]-10-yl)-N^4-(3-isobutyramido-1-methyl-1H-pyrazol-5-yl)succinamide] | 12 nM | 1130 nM | 168 nM
6 | C[C@H](CC(=O)Nc1cc(-c2ccccn2)nn1C)C(=O)N[C@@H]1C(=O)N2CCCN2Cc2ccccc21 [Example 94, (R)-2-Methyl-N^4-(1-methyl-3-(pyridin-2-yl)-1H-pyrazol-5-yl)-N^1-((S)-11-oxo-2,3,10,11-tetrahydro-1H,5H-benzo[d]pyrazolo [1,2-a][1,2]diazepin-10-yl)succinamide] | 12 nM | 2540 nM | 34 nM
7 | COCCn1cc(-c2nc(Cl)c(NC(=O)C[C@@H](C)C(=O)N[C@@H]3C(=O)N4CCCN4Cc4ccccc43)s2)cn1 [Example 99, (R)-N^4-(4-Chloro-2-(1-(2-methoxyethyl)-1H-pyrazol-4-yl)thiazol-5-yl)-2-methyl-N^1-((S)-11-oxo-2,3,10,11-tetrahydro-1H,5H-benzo[d]pyrazolo [1,2-a][1,2]diazepin-10-yl)succinamide] | 14 nM | 892 nM | 50 nM
8 | C[C@@H](CF)NC(=O)c1cc(NC(=O)C[C@H](C(=O)N[C@@H]2C(=O)N3CCCN3Cc3c(F)cccc32)C2CC2)n(C)n1 [Example 100, (S)-2-Cyclopropyl-N^1-((S)-6-fluoro-11-oxo-2,3,10,11-tetrahydro-1H,5H-benzo[d]pyrazolo [1,2-a][1,2]diazepin-10-yl)-N^4-(3-(((S)-1-fluoropropan-2-yl)carbamoyl)-1-methyl-1H-pyrazol-5-yl)succinamide] | 15 nM | 272 nM | 28 nM

The next compounds have a lower IC50 (human SPPL2a [1]) than those just listed; values first:

Row | IC50 (human SPPL2a [1]) | IC50 (Sppl2a CD74) | IC50 (human SPPL2a [2]) | Structure (SMILES)
9 | 1 nM | 519 nM | 14 nM | C[C@H](CC(=O)Nc1cc(C(=O)NCC(F)F)nn1C)C(=O)N[C@@H]1C(=O)N2CCCN2Cc2ccccc21 [Example 65, (R)-N^4-(3-((2,2-difluoroethyl)car-bamoyl)-1-methyl-1H-pyrazol-5-yl)-2-methyl-N^1-((S)-11-oxo-2,3,10,11-tetrahydro-1H,5H-benzo[d]pyrazolo [1,2-a][1,2]diazepin-10-yl)succinamide]
10 | 2 nM | 136 nM | 2 nM | Cc1nc(C(=O)NC(C)C)sc1NC(=O)C[C@@H](C)C(=O)N[C@@H]1C(=O)N2CCCN2Cc2ccccc21 [Example 66, (R)-N^4-(2-(Isopropylcarba-moyl)-4-methylthiazol-5-yl)-2-methyl-N^1-((S)-11-oxo-2,3,10,11-tetrahydro-1H,5H-benzo[d]pyrazolo [1,2-a][1,2]diazepin-10-yl)succinamide]
11 | 3 nM | 329 nM | 34 nM | C[C@H](CC(=O)Nc1cc(C(=O)NCC(F)(F)F)nn1C)C(=O)N[C@@H]1C(=O)N2CCCN2Cc2ccccc21 [Example 68, (R)-2-methyl-N^4-(1-methyl-3-((2,2,2-trifluoroethyl)car-bamoyl)-1H-pyrazol-5-yl)-N^1-((S)-11-oxo-2,3,10,11-tetrahydro-1H,5H-benzo[d]pyrazolo [1,2-a][1,2]diazepin-10-yl)succinamide]
12 | 3 nM | 1240 nM | 9 nM | C[C@H](CC(=O)Nc1cc(NC(=O)c2ccccc2F)nn1C)C(=O)N[C@@H]1C(=O)N2CCCN2Cc2ccccc21 [Example 69, (R)-N^4-(3-(2-Fluorobenzamido)-1-methyl-1H-pyrazol-5-yl)-2-methyl-N^1-((S)-11-oxo-2,3,10,11-tetrahydro-1H,5H-benzo[d]pyrazolo [1,2-a][1,2]diazepin-10-yl)succinamide]
13 | 5 nM | 1690 nM | 7 nM | C[C@H](CC(=O)Nc1cc(NC(=O)c2cccc(F)c2F)nn1C)C(=O)N[C@@H]1C(=O)N2CCCN2Cc2ccccc21 [Example 76, (R)-N^4-(3-(2,3-Difluorobenzamido)-1-methyl-1 H-pyrazol-5-yl)-2-methyl-N^1-((S)-11-oxo-2,3,10,11-tetrahydro-1H,5H-benzo[d]pyrazolo [1,2-a][1,2]diazepin-10-yl)succinamide]
14 | 6 nM | 250 nM | 5 nM | CC(C)NC(=O)c1cc(NC(=O)C[C@H](C(=O)N[C@@H]2C(=O)N3CCCN3Cc3c(F)cccc32)C2CC2)n(C)n1 [Example 77, (S)-2-Cyclopropyl-N^1-((S)-6-fluoro-11-oxo-2,3,10,11-tetrahydro-1H,5H-benzo[d]pyrazolo [1,2-a][1,2]diazepin-10-yl)-N^4-(3-(isopropylcarba-moyl)-1-methyl-1H-pyrazol-5-yl)succinamide]
15 | 7 nM | 910 nM | 8 nM | Cc1cc(-c2cc(NC(=O)C[C@@H](C)C(=O)N[C@@H]3C(=O)N4CCCN4Cc4ccccc43)n(C)n2)no1 [Example 80, (R)-2-Methyl-N^4-(1-methyl-3-(5-methylisoxazol-3-yl)-1H-pyrazol-5-yl)-N^1-((S)-11-oxo-2,3,10,11-tetrahydro-1H,5H-benzo[d]pyrazolo [1,2-a][1,2]diazepin-10-yl)succinamide]
16 | 9 nM | 1870 nM | 36 nM | CC(C)C(=O)Nc1cc(NC(=O)C[C@H](C(=O)N[C@@H]2C(=O)N3CC4(CC4)CN3C(=O)c3ccccc32)C2CCC2)n(C)n1 [Example 82, (S)-2-Cyclobutyl-N^1-((S)-5,11-dioxo-10,11-dihydro-1H,3H,5H-spiro[benzo[d]pyrazolo[1,2-a][1,2]diazepine-2,1′-cyclopropan]-10-yl)-N^4-(3-isobutyramido-1-methyl-1H-pyrazol-5-yl)succinamide]
